Data reported in ChEMBL document CHEMBL1201862, “PubChem BioAssay data set” (2004).
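Values below derive from 48-hour exposures of cells grown in 96-well plates, with endpoints linearly interpolated between the two concentrations bracketing the appropriate inhibition level. GI50 marks 50% less growth.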 Calls of active or inactive are those of the source. Rule as the data show it: active = GI50 up to about 1.1 µM and inactive = higher.

Tests used:
Test in all cases: inhibition of tumour cell growth, NCI panel, 48 h
NCI-H522 = system: NCI-H522
SF-295 = system: SF-295
SW-620 = system: SW-620
RXF 393 = system: RXF 393
Malme-3M = system: Malme-3M
OVCAR-8 = system: OVCAR-8
HT-29 = system: HT-29
U-251 = system: U-251
KM12 = system: KM12
HCC 2998 = system: HCC 2998
786-0 = system: 786-0
NCI-H226 = system: NCI-H226
SK-MEL-5 = system: SK-MEL-5
SR = system: SR
MOLT-4 = system: MOLT-4
SNB-75 = system: SNB-75
K562 = system: K562

Measured: GI50

CCOC(C[C@H](O)[C@H]1COC(=S)S1)OCC
inactive: NCI-H522 > 100 µM | SF-295 > 100 µM | SW-620 > 100 µM | RXF 393 4.65 µM | Malme-3M > 100 µM | OVCAR-8 > 100 µM | HT-29 > 100 µM | U-251 > 100 µM | KM12 > 100 µM | HCC 2998 > 100 µM | 786-0 > 100 µM | NCI-H226 > 100 µM | SK-MEL-5 > 100 µM | SR > 100 µM

CN(c1ccccc1)C1C(=O)N(c2ccccc2)C1/C=C/c1ccccc1 (stereo unspecified)
inactive: NCI-H522 > 100 µM | SF-295 > 100 µM | MOLT-4 > 100 µM | SW-620 > 100 µM | RXF 393 > 100 µM | Malme-3M > 100 µM | SNB-75 > 100 µM | OVCAR-8 > 100 µM | HT-29 > 100 µM | U-251 > 100 µM | KM12 > 100 µM | HCC 2998 > 100 µM | 786-0 > 100 µM | NCI-H226 > 100 µM | SK-MEL-5 > 100 µM | SR > 100 µM

CCOP(=O)(OCC)/C(C#N)=C/c1ccc[nH]1
inactive: NCI-H522 > 100 µM | SF-295 > 100 µM | K562 > 100 µM | MOLT-4 > 100 µM | SW-620 > 100 µM | RXF 393 > 100 µM | Malme-3M > 100 µM | SNB-75 55.7 µM | OVCAR-8 > 100 µM | HT-29 > 100 µM | U-251 > 100 µM | KM12 > 100 µM | 786-0 > 100 µM | NCI-H226 > 100 µM | SK-MEL-5 > 100 µM | SR > 100 µM

COc1cc2ccnc3c(=C(SC)SC)c(=O)c(c1OC)c23
inactive: NCI-H522 1.56 µM | SF-295 58.1 µM | K562 3.29 µM | MOLT-4 4.6 µM | SW-620 15.7 µM | RXF 393 13 µM | Malme-3M 11.4 µM | SNB-75 10.2 µM | OVCAR-8 10.6 µM | HT-29 12.3 µM | U-251 42.7 µM | KM12 22.4 µM | HCC 2998 16.4 µM | 786-0 11 µM | SK-MEL-5 > 10 µM

O=[N+]([O-])c1cc([N+](=O)[O-])c(/C=C/c2ccc(Cl)c(Cl)c2)cc1/C=C/c1ccc(Cl)c(Cl)c1
inactive: NCI-H522 21.5 µM | SF-295 25.6 µM | K562 27.7 µM | MOLT-4 23.2 µM | SW-620 28.2 µM | RXF 393 20.8 µM | Malme-3M 25.2 µM | SNB-75 29 µM | OVCAR-8 29.2 µM | HT-29 28.1 µM | U-251 33 µM | KM12 18.5 µM | HCC 2998 30.3 µM | 786-0 24.7 µM | NCI-H226 24.6 µM | SK-MEL-5 18.9 µM

Cc1ccc(SC2C(C)(C)N(C(C)C)P2(=O)N(C(C)C)C(C)C)cc1 (stereo unspecified)
inactive: NCI-H522 20.5 µM | SF-295 70.8 µM | K562 17.7 µM | MOLT-4 30.2 µM | SW-620 > 25.5 µM | Malme-3M > 32.3 µM | SNB-75 > 100 µM | OVCAR-8 45.5 µM | HT-29 26 µM | U-251 > 59 µM | KM12 > 100 µM | HCC 2998 64.3 µM | 786-0 82.4 µM | NCI-H226 > 100 µM | SK-MEL-5 22.4 µM | SR 14.2 µM

C=C1C(=O)O[C@H]2[C@H]1[C@H](OC(=O)/C(C)=C\C)CC(=C)[C@@H]1[C@H](O)[C@H]3O[C@@]3(C)[C@@]12O [EUPATUNDIN]
inactive: NCI-H522 > 100 µM | SF-295 > 100 µM | K562 > 100 µM | SW-620 > 100 µM | Malme-3M > 100 µM | SNB-75 > 100 µM | OVCAR-8 > 100 µM | HT-29 > 100 µM | U-251 > 100 µM | KM12 > 100 µM | HCC 2998 > 100 µM | 786-0 > 100 µM | SK-MEL-5 > 100 µM | SR > 100 µM

COC(=O)c1csnn1
inactive: NCI-H522 > 100 µM | SF-295 > 100 µM | K562 > 100 µM | MOLT-4 > 100 µM | SW-620 > 100 µM | Malme-3M > 100 µM | OVCAR-8 > 100 µM | HT-29 > 100 µM | U-251 > 100 µM | KM12 > 100 µM | HCC 2998 > 100 µM | 786-0 > 100 µM | NCI-H226 > 100 µM | SK-MEL-5 > 100 µM | SR > 100 µM

COc1ccc(CC2c3c(cc(OC)c(OC)c3OC)CCN2C)cc1OC (stereo unspecified)
inactive: NCI-H522 > 100 µM | SF-295 63.7 µM | K562 > 100 µM | MOLT-4 > 100 µM | SW-620 > 100 µM | Malme-3M > 100 µM | SNB-75 > 100 µM | OVCAR-8 > 100 µM | HT-29 > 100 µM | U-251 > 100 µM | KM12 > 100 µM | HCC 2998 > 100 µM | 786-0 > 100 µM | SK-MEL-5 > 100 µM
